Test results: patent US20020039567A1, “Methods of treating bone or cartilage conditions by the administration of creatine” (priority 1998, published 2002)

How the values were obtained:
[1] = test system: osteoblasts (micromass culture); experiment: Mineralization, micromass osteoblast cell culture; assay type: cell-based, rat
Procedure: This isolation technique is based on the ability of osteoblasts to migrate from bone onto a substratum. Parietal and frontal calvariae (4 per animal) were aseptically explanted from 6 day-old IcoIbm rats. The calvariae were placed in Tyrode's balanced salt solution, calcium and magnesium free (TESS). The periosteum was enzymatically removed with 0.05% trypsin and 0.02% collagenase A (0.76 U/mg) dissolved in TBSS (40 calvaria/20 ml). The calvariae were shaken for 70 minutes in a waterbath at 37° C. They were washed with TESS and then transferred to 60 mm culture dishes (40 calvariae/dish) containing 5 ml of 0.02% collagenase A (0.76 U/mg) in culture medium BGJb Fitton-Jackson modification and placed in the incubator for 4 hours. The calvariae were then washed with culture medium B supplemented with 10% foetal calf serum (FCS). The calvariae were transferred into 60 mm culture dishes (4 frontal and 4 parietal/dish). The growth medium supplemented with 10% FCS and 50 μg/ml ascorbate was completely changed every 48 hours. The culture was kept for 3 weeks. After 3 weeks the migrated cells were harvested. The dish was washed with TESS, and 5 ml of TESS containing 0.05% trypsin and 0.02% collagenase A (0.76 U/mg) was added. After 1 hour in the incubator, the dish was washed with culture medium BGJb supplemented with 10% FCS. The dishes containing the calvariae and cells were rinsed with serum containing media BGJb. The cells obtained were filtered through a 40 μm nylon mesh to remove bone debris and cell aggregates. The suspended cells were centrifuged at 600 g for 5 minutes. The cell pellet was resuspended in serum containing medium BGJb and centrifuged. The viability of the resuspended cells was examined by the dye exclusion of 0.4% trypan blue, and the cells were counted in a haeinocytometer. The inoculation densities were 2·10^5/10 cm^2 for monolayer and 2·10^5/30 μl for micromasses. The micromass cultures were kept for 1 hour in the incubator before 2 ml growth medium was added. All the cultures were kept at 37° C. in a humidified atmosphere of 5% CO2, 95% air. All culture media were supplemented with 50 μg/ml ascorbate. To analyze the collagen types, 60 μg/ml beta-aminopropionitrile (beta-APN) was added to the culture medium. During cell isolation and inoculation, no ascorbate was used to increase plating efficiency. No antibiotics and no beta-glycerophosphate were added. The media were completely changed every 48 hours (60 mm culture dish 5 ml; 35 mm culture dish 2 ml). The most specific method for detecting calcified matrices is the von Kossa reaction. Silver staining indicates the presence of calcium phosphate aggregated with certain organic acids. Structural details are completely obscured by the dark precipitate. Calcified tissue components are darkened in various shades from light brown to deep black, irrespective of their mineral content. [table]

embryonic chick femora = conditions: cited from earlier work
[2] = test system: osteoblasts (micromass culture); experiment: Cell viability (neutral red uptake), micromass osteoblast cell culture; assay type: cell-based, rat; conditions: 20 mM creatine; 3 weeks; vs control (p<0.005) and 10 mM creatine (p<0.003)
Procedure: This isolation technique is based on the ability of osteoblasts to migrate from bone onto a substratum. Parietal and frontal calvariae (4 per animal) were aseptically explanted from 6 day-old IcoIbm rats. The calvariae were placed in Tyrode's balanced salt solution, calcium and magnesium free (TESS). The periosteum was enzymatically removed with 0.05% trypsin and 0.02% collagenase A (0.76 U/mg) dissolved in TBSS (40 calvaria/20 ml). The calvariae were shaken for 70 minutes in a waterbath at 37° C. They were washed with TESS and then transferred to 60 mm culture dishes (40 calvariae/dish) containing 5 ml of 0.02% collagenase A (0.76 U/mg) in culture medium BGJb Fitton-Jackson modification and placed in the incubator for 4 hours. The calvariae were then washed with culture medium B supplemented with 10% foetal calf serum (FCS). The calvariae were transferred into 60 mm culture dishes (4 frontal and 4 parietal/dish). The growth medium supplemented with 10% FCS and 50 μg/ml ascorbate was completely changed every 48 hours. The culture was kept for 3 weeks. […] The viability of the resuspended cells was examined by the dye exclusion of 0.4% trypan blue, and the cells were counted in a haeinocytometer. […] The absorbance of the supernatant (3 aliquots/dish) was read at 540 nm versus extraction buffer. […] If the absorbance was higher than 1, the samples were diluted with extraction buffer.

cultured chondrocytes = conditions: cited from earlier work
epiphyseal growth plate = conditions: feeding rats with GPA; cited from earlier work

Row | SMILES | mineralized area (FIG. 4) ([1]; 10 mM creatine vs control, 2 weeks, p<0.00025) | mineralized area (FIG. 4) ([1]; 10 mM creatine vs control, 3 weeks, p<0.0035) | mineralization (FIG. 4) ([1]; 10 mM creatine, 3 weeks vs 2 weeks, p<0.0015) | mineralized area (FIG. 4) ([1]; 20 mM creatine vs control, 2 weeks, p<0.00025) | mineralized area (FIG. 4) ([1]; 20 mM creatine vs control, 3 weeks, p<0.03) | perichondral ossification in the diaphysis (embryonic chick femora; 0.1 mM in chick embryo extract with 20% horse serum) | deposition of calcium in the cartilage matrix of the epiphysis (embryonic chick femora; very crude preparations at 0.1 mM in chick embryo extract with 20% horse serum) | NR uptake [2] | synthesis of pro-a type II and type X collagen (cultured chondrocytes) | epiphyseal growth plate morphology (epiphyseal growth plate)
1 | CN(CC(=O)O)C(=N)N [creatine] | significantly more mineralization | significantly higher | significantly higher mineralization | significantly more mineralization | significantly higher | accelerated | accelerated | significantly lower NR uptake |  | 
2 | N=C(N)NCCC(=O)O [GPA, beta-guanidinopropionic acid] |  |  |  |  |  |  |  |  | interferes with the synthesis | marked abnormalities
